Like-named read-outs stand apart in the source and are kept apart here. Residues, ends and D or L forms follow the SMILES beside them.
Tests used:
[1] = biological target: T1, GPR15 (Homo sapiens, UniProt P49685); assay: cAMP inhibition (Gi/o), HTRF with forskolin; type: cell-based; conditions: mean
T1 construct: hIL-2Ra signal peptide (N); expressed in transfected cells
T1 sequence (P49685 2-360 limits assumed): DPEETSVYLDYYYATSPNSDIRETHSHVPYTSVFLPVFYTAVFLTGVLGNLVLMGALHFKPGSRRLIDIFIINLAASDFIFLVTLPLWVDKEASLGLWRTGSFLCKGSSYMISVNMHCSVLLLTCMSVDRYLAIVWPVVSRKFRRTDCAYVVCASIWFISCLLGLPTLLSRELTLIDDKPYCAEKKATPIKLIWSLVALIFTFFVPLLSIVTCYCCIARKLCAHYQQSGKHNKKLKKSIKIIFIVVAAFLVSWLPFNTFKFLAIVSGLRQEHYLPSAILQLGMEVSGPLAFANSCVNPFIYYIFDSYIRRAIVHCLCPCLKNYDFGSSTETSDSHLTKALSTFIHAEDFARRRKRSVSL
Procedure: Peptide-dependent second messenger responses were measured using commercially available HTRF-based IP1 and cAMP kits (Cisbio) as described previously ([Nørskov-Lauritsen et al., 2014]). Receptor expression was induced for 48 hr with 0.1 μg/ml doxycycline in 10 cm dishes. For IP1 measurements (to measure Gq/11), 2,500 cells/well were mixed with ligands in triplicate wells in low volume white 384-well plates at 37°C for 30 min. For cAMP assays, 2,500 cells/well were added in triplicate wells in white 384-well plates in the absence or presence of 3 μM forskolin (to measure Gs and Gi/o activation respectively). 100 μM IBMX was included to prevent cAMP degradation during 30 min stimulation on a plate shaker at room temperature. For both assays, HTRF was measured using an EnVision 2104 Multimode plate reader (PerkinElmer).

[2] = biological target: T2, GPR68 (Homo sapiens, UniProt Q15743); assay: GloSensor cAMP assay (Gs), allosteric operational model fitting; type: cell-based; set-up: expressed in transfected cells; host or cells: HEK293T, transient (PEI), co-transfected with GloSensor cAMP plasmid; conditions: for Log(ab/KB): allosteric operational model parameter, GPR68 GloSensor cAMP
Procedure: GPR68-mediated cAMP signaling was measured using GloSensor cAMP assays as published previously ([Huang et al., 2015], [Yu et al., 2019]) with modifications as indicated below. Calcium- and magnesium-free HBSS was supplemented with different organic buffer reagents for different pH solutions, 20 mM 2-(N-morpholino)ethanesulfonic acid (MES, Alfa Aesar) for pH 6.00 – 6.70, 20 mM 4-(2-hydroxyethyl)-1-piperazineethanesulfonic acid (HEPES, Fisher) for pH 6.80 – 8.20, and 20 mM (tris(hydroxymethyl)methylamino)propanesulfonic acid (TAPS) for pH 8.30 – 8.60. The phosphodiesterase (PDE) inhibitor Ro 20-1724 (10 μM final, Cayman Chemical) was included in pH buffers to eliminate potential effect of PDE […]. HEK293T cells were transfected with a modified polyethylenimine (PEI, Polysciences) transfection method ([Longo et al., 2013]). For a 15-cm dish of HEK293T cells with 25 mL growth medium, 8 μg receptor DNA and 8 μg GloSensor DNA (Promega) were mixed in 1 mL of Opti-MEM medium followed by addition of 80 μL PEI reagents. The mixture was added to cells after 20 min incubation at room temperature. Overnight transfected cells were plated in poly-L-lysine (Sigma) coated 384-well white clear bottom plates (Greiner Bio-One, #781098) using DMEM (Corning) + 1% dialyzed FBS (Omega Scientific) for at least 6 h (up to 24 h). Cells were removed of medium before receiving 20 μL/well of 3.5 mM luciferin (Goldbio) prepared in assay buffer (HBSS, 20 mM TAPS, pH 8.40, 10 μM Ro 20-1724) for 1 h at 37°C. Luciferin loading solutions were removed and premixed drug solutions at desired pH conditions were added to cells (25 μL/well). Luminescence was measured 25-30 min after drug application. Results were normalized (basal and maximum responses in the absence of modulator were set to be 0 and 100%) and pooled for analysis using GraphPad Prism.
All of the other parameters, including allosteric affinity cooperativity (α), allosteric modulator binding affinity KB, orthosteric agonist (protons) efficacy τA, system maximal response, and slope factor n were all globally shared for all datasets for each modulator. […] We therefore used an allosteric index, log(αβ/KB) ([Kenakin, 2017a]), which contains both allosteric binding affinity and cooperativity, to quantify the overall allosteric activity.
Target sequence in this assay (Q15743 whole entry): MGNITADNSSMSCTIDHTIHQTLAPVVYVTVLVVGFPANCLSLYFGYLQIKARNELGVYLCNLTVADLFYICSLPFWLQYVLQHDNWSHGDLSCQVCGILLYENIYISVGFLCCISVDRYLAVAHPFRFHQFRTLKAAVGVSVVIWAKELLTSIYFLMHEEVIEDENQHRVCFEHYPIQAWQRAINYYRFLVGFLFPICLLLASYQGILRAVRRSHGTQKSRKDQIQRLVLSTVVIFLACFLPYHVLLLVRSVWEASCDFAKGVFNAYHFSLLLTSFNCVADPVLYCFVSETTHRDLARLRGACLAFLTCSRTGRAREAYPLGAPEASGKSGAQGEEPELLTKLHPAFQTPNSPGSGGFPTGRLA

[3] = biological target: T3, MRGPRX2 (Homo sapiens, UniProt Q96LB1); assay: β-arrestin recruitment (Tango), known peptide receptors; type: cell-based; conditions: mean, n = 3
T3 construct: host or cells: HTLA cells (HEK293-derived)
T3 sequence (Q96LB1 1-330): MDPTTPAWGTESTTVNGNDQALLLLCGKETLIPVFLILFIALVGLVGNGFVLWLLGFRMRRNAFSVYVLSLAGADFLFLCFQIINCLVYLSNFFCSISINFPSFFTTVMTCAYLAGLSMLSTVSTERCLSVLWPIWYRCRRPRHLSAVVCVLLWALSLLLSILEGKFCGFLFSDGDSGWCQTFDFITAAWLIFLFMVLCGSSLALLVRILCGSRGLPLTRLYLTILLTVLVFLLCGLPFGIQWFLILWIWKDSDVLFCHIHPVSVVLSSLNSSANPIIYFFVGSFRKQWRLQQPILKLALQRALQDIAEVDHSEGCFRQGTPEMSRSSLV

[4] = biological target: T4, NPY5 (Homo sapiens, UniProt Q15761); assay: as above; type: cell-based; conditions: NPY5R; Emax and pEC50 n.d.; n = 3
T4 construct: host or cells: HTLA cells (HEK293-derived)
T4 sequence (Q15761 1-445): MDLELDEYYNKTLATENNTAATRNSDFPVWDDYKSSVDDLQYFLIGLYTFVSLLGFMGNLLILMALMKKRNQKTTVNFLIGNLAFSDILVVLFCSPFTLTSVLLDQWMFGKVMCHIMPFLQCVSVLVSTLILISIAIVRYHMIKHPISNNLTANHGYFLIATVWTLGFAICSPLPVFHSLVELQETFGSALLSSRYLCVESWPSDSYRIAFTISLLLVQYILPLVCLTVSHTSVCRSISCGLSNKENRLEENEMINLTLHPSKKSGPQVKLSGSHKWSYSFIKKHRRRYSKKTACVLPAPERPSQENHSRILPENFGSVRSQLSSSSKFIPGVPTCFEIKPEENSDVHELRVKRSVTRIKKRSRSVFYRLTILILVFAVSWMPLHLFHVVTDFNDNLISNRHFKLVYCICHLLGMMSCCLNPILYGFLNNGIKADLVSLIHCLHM
Procedure: (§1) The peptide library was additionally screened against 120 GPCR targets in parallel, including all available orphan receptors and 27 known class A peptide receptors using the Tango assay platform ([Kroeze et al., 2015]). Briefly, HTLA cells (a HEK293 cell line stably expressing a tTA-dependent luciferase reporter and a β-arrestin2-TEV fusion gene) were plated 10,000 cells/well in poly-L-lysine–coated clear-bottom white 384-well plates in DMEM supplemented with 10% FBS, 100 U/ml penicillin and 100 μg/ml streptomycin, 2 μg/ml puromycin and 100 μg/ml hygromycin B. 24 hr later, cells were transfected with Tango GPCR constructs using the calcium phosphate method ([Jordan et al., 1996]). The next day, culture medium was changed to DMEM + 1% dFBS and 10 μM peptides were added for overnight stimulation. Bright-Glo solution (Promega) was incubated for 15–20 min at room temperature, and luminescence was counted using a Trilux luminescence counter (Wallac).
For subsequent peptide validation experiments using Tango assays, HTLA cells were transiently transfected in 10 cm dishes with the receptor of interest using polyethylenimine (PEI) ([Longo et al., 2013]). After 24 hr, 25,000 cells/well were plated in clear bottom, white-walled 384-well plates. Assays were performed as described above, with luminescence measured using an EnSpire 2300 Multimode plate reader (PerkinElmer). Luminescence counts were exported into Excel and were analyzed using GraphPad Prism 7.

[5] = biological target: T2, GPR68; assay: Real-time receptor internalization (TR-FRET), concentration-response; type: cell-based; set-up: hIL-2Ra signal peptide (N); expressed in transfected cells; conditions: GPR68; real-time internalization; mean, SEM and n (3)
Procedure: 48 hr prior to parallel assaying, SNAP-tagged oGPCR cells were plated (10,000 cells/well) in fibronectin-coated 384-well Epic biosensor microplates (Corning) and poly-D-lysine coated white 384-well plates (for internalization assays). SNAP- GLP-1 receptor was plated alongside orphan receptor cells as an internal assay control for internalization assays. Receptor-expression was induced with 0.1 μg/ml doxycycline.
A TR-FRET real-time internalization assay was used to examine peptide-dependent changes in orphan receptor localization as described previously ([Foster and Bräuner-Osborne, 2018]). Surface-expressed SNAP-tagged receptors were labeled with a cell-impermeable luminescent terbium cryptate (100 nM SNAP Lumi4-Tb; Cisbio, France) for 1 hr at 37°C. Cells were washed to remove excess terbium and incubated with fluorescein-O-acetic acid (100 μM; Sigma Aldrich) for 5 min at 37°C. Peptides were added as for DMR assays, and internalization responses were recorded for 60 min at 37°C using an EnVision 2104 Multimode plate reader (PerkinElmer). 100 nM GLP-1 was used as a positive control for SNAP-GLP1R internalization. Real-time internalization responses were calculated based on TR-FRET (excitation 340 nm; emission 520 nm and 615 nm), and were expressed as the ratio between donor (terbium) and acceptor (fluorescein) emission. For peptide screening analysis (both DMR and internalization assays), we calculated the area under the curve from the real-time traces. As the magnitude of the responses was variable between orphan receptor targets, particularly for the SNAP-tag based internalization assay where the signal is dependent on receptor surface expression, the AUC values were normalized to their respective plate averages and expressed as fold change. Validation experiments for receptor internalization were performed as above. Internalization data was processed in MS-Excel and area under the curve was used to generate concentration-response curves using GraphPad Prism 7.0. Data represent mean ± standard error of the mean (SEM) from at least 3 biologically independent experiments.
Target sequence in this assay (Q15743 2-365 limits assumed): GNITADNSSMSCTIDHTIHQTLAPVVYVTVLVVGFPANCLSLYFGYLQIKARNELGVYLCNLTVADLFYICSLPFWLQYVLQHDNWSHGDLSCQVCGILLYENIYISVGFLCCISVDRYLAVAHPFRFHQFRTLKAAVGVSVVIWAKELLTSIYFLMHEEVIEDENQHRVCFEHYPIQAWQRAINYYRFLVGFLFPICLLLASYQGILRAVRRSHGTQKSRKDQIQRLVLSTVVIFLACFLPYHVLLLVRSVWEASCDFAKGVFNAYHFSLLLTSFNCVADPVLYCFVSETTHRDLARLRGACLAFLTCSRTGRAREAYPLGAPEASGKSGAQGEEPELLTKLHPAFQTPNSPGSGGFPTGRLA

[6] = test system: 120 GPCR targets, including all available orphan receptors and 27 known class A peptide receptors; assay: Peptide library screen, β-arrestin recruitment (Tango, fold change, 10 μM); type: cell-based, human; conditions: Tango; receptor(s) at which the known library peptide was active, among its known GPCR target(s); validated pairings
Procedure: as §1

Molecule: CC(C)C[C@H](NC(=O)[C@H](C)NC(=O)CNC(=O)[C@@H]1CCCN1C(=O)[C@@H](NC(=O)[C@@H](NC(=O)[C@H](Cc1c[nH]c2ccccc12)NC(=O)[C@@H](N)CC(C)C)C(C)C)C(C)C)C(=O)N1CCC[C@H]1C(=O)N[C@@H](CCC(N)=O)C(=O)N[C@H](C(=O)O)C(C)C [64 resynthesized] (H-LWVVPGALPQV-OH)
- Emax ([1]; receptor GPR15, SEM and n (4), read-out: cAMP accumulation assays Emax (% FSK)): 30.8%

Molecule: CC(C)C[C@H](NC(=O)[C@H](C)NC(=O)CNC(=O)[C@@H]1CCCN1C(=O)[C@@H](NC(=O)[C@@H](NC(=O)[C@H](Cc1c[nH]c2ccccc12)NC(=O)[C@@H](N)CC(C)C)C(C)C)C(C)C)C(=O)N1CCC[C@H]1C(=O)N[C@@H](CCC(N)=O)C(=O)N[C@H](C(=O)O)C(C)C [GPR15L_(47-57)] (H-LWVVPGALPQV-OH)
- Emax ([1]; GPR15, SEM and n, read-out: Emax, cAMP (% FSK)): 29.2%

Molecule: Nc1nc(NCc2ccccc2)nc(-c2ccccc2CO)n1 [Ogerin]
- Log(ab/KB) ([2]; replicate 1): 5.25
- Log(ab/KB) ([2]; replicate 2): 5.23
- Log(ab/KB) ([2]; replicate 3): 5.25

Molecule: CC[C@H](C)[C@H](NC(=O)[C@H](CCCNC(=N)N)NC(=O)[C@H](C)NC(=O)CNC(=O)[C@H](CCCCN)NC(=O)[C@H](CCCNC(=N)N)NC(=O)[C@@H](NC(=O)[C@H](C)NC(=O)[C@H](CS)NC(=O)[C@H](CCC(N)=O)NC(=O)[C@H](CCC(=O)O)NC(=O)CNC(=O)[C@H](C)NC(=O)[C@H](CC(=O)O)NC(=O)[C@H](CS)NC(=O)[C@H](CCSC)NC(=O)[C@@H]1CCCN1C(=O)[C@@H](NC(=O)[C@H](CCC(N)=O)NC(=O)CNC(=O)[C@@H](N)Cc1ccc(O)cc1)C(C)C)C(C)C)C(=O)O [Pepetide 139] (H-YGQVPMCDAGEQCAVRKGARI-OH; N-terminus assumed)
- Log(ab/KB) ([2]; replicate 1): 5.24
- Log(ab/KB) ([2]; replicate 2): 5.36
- Log(ab/KB) ([2]; replicate 3): 5.40
- Log(ab/KB) ([2]; replicate 4): 5.40
- Fold difference ([2]; fold difference of ab/KB relative to Ogerin): 1.28

Molecule: ATVRNEDKWKPLNNPRNRDLFFRRLQAYFK [Peptide 175]
- Emax, Tango (fold over basal) [3]: 3.5 fold over basal
- pEC50, Tango (fold over basal) [3]: 4.67

Molecule: FLWKDLQRVR [Peptide 56]
- Emax, Tango (fold over basal) [3]: 4.9 fold over basal
- pEC50, Tango (fold over basal) [3]: 4.90

Molecule: IQAQLKELRY [Peptide 49]
- Comment, Tango (fold over basal) [4]: Response >1uM

Molecule: QMAVKKYLAAVL [Peptide 84]
- Emax, Tango (fold over basal) [3]: 7.0 fold over basal
- pEC50, Tango (fold over basal) [3]: 5.02

Molecule: RFGIPMDRIGRNRLSNSR [Peptide 128.1]
- Internalization assays Emax (AUC) [5]: 2.0

Molecule: VPNLPGRF [Peptide 36]
- Comment, Tango (fold over basal) [4]: Response >1uM

Molecule: WYKHVASPRYHTVGRAAGLLMGL [Peptide 151]
- Active at: (activity in b-arrestin recruitment assays) [6]: NPBW1, NPBW2
- Emax, Tango (fold over basal) [3]: 3.4 fold over basal
- pEC50, Tango (fold over basal) [3]: 4.73

— article PMC6838683, “Discovery of Human Signaling Systems: Pairing Peptides to G Protein-Coupled Receptors” (Cell, 2019)
